# Measurements: the supplement of paper PMC10307832
# What was measured:
# Assay in all cases: relative viability (nuclei count vs DMSO), 5 days (fraction); higher = more cells survive
# XMD13-2 + Lapatinib = compound: C1CC1C(=O)NC2=NNC3=C2C=CC(=C3)C4=CC(=CC=C4)C(=O)NC5CC5 [XMD13-2] + CS(=O)(=O)CCNCc1ccc(-c2ccc3ncnc(Nc4ccc(OCc5cccc(F)c5)c(Cl)c4)c3c2)o1 [Lapatinib] (partner 2 µM)
# In short: (§1)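 After 5 days of treatment, lung cancer cells in 1536-well plates were fixed and stained in a single step (final 0.05% Triton X-100, 1% formaldehyde, 1 ug/ml Hoechst) and their nuclei counted on 4× images. Treatment had been applied by pin tool the day after seeding as one drug alone or as a fixed anchor-drug dose with five library-drug doses (not always all listed) in √10 steps. Relative viability is the nuclei count of treated wells divided by that of vehicle wells, and values are medians of duplicate plates.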
# XMD13-2 + Phenformin = compound: C1CC1C(=O)NC2=NNC3=C2C=CC(=C3)C4=CC(=CC=C4)C(=O)NC5CC5 [XMD13-2] + N=C(N)NC(=N)NCCc1ccccc1 [Phenformin] (partner 250 µM)
# In short: as §1
# [1] = compound: Cc1ccc(C(=O)Nc2cccc(C(F)(F)F)c2)cc1Nc1cncc(C(N)=O)c1 [ALW-II-49-7] + CC(=O)c1c(C)c2cnc(Nc3ccc(N4CCNCC4)cn3)nc2n(C2CCCC2)c1=O [Palbociclib] (partner 0.5 µM)
# In short: as §1
# ALW-II-49-7 + AZD7762 = compound: Cc1ccc(C(=O)Nc2cccc(C(F)(F)F)c2)cc1Nc1cncc(C(N)=O)c1 [ALW-II-49-7] + NC(=O)Nc1cc(-c2cccc(F)c2)sc1C(=O)N[C@H]1CCCNC1 [AZD7762] (partner 0.2 µM)
# In short: as §1
cell line,measurement,setting,value
NCI-H1944,relative viability,XMD13-2 + Lapatinib; first compound 0.05 µM,1.01
same,relative viability,XMD13-2 + Lapatinib; first compound 0.1581 µM,0.726
same,relative viability,XMD13-2 + Lapatinib; first compound 0.5 µM,0.95
same,relative viability,XMD13-2 + Lapatinib; first compound 1.581 µM,1.06
same,relative viability,XMD13-2 + Lapatinib; first compound 5 µM,0.746
same,relative viability,XMD13-2 + Phenformin; first compound 0.05 µM,0.219
same,relative viability,XMD13-2 + Phenformin; first compound 0.1581 µM,0.224
same,relative viability,XMD13-2 + Phenformin; first compound 0.5 µM,0.225
same,relative viability,XMD13-2 + Phenformin; first compound 1.581 µM,0.23
same,relative viability,XMD13-2 + Phenformin; first compound 5 µM,0.203
same,relative viability,[1]; first compound 0.08 µM,0.353
same,relative viability,[1]; first compound 0.253 µM,0.32
same,relative viability,[1]; first compound 0.8 µM,0.327
same,relative viability,[1]; first compound 2.53 µM,0.346
same,relative viability,[1]; first compound 8 µM,0.351
same,relative viability,ALW-II-49-7 + AZD7762; first compound 0.08 µM,0.801
same,relative viability,ALW-II-49-7 + AZD7762; first compound 0.253 µM,0.614
same,relative viability,ALW-II-49-7 + AZD7762; first compound 0.8 µM,0.359
same,relative viability,ALW-II-49-7 + AZD7762; first compound 2.53 µM,0.458
same,relative viability,ALW-II-49-7 + AZD7762; first compound 8 µM,0.498
LK-2,relative viability,XMD13-2 + Lapatinib; first compound 0.05 µM,0.977
same,relative viability,XMD13-2 + Lapatinib; first compound 0.1581 µM,0.912
same,relative viability,XMD13-2 + Lapatinib; first compound 0.5 µM,1.12
same,relative viability,XMD13-2 + Lapatinib; first compound 1.581 µM,1.03
same,relative viability,XMD13-2 + Lapatinib; first compound 5 µM,0.743
same,relative viability,XMD13-2 + Phenformin; first compound 0.05 µM,0.607
same,relative viability,XMD13-2 + Phenformin; first compound 0.1581 µM,0.496
same,relative viability,XMD13-2 + Phenformin; first compound 0.5 µM,0.455
same,relative viability,XMD13-2 + Phenformin; first compound 1.581 µM,0.334
same,relative viability,XMD13-2 + Phenformin; first compound 5 µM,0.392
same,relative viability,[1]; first compound 0.08 µM,0.767
same,relative viability,[1]; first compound 0.253 µM,0.487
same,relative viability,[1]; first compound 0.8 µM,0.63
same,relative viability,[1]; first compound 8 µM,0.673
same,relative viability,ALW-II-49-7 + AZD7762; first compound 0.08 µM,0.447
same,relative viability,ALW-II-49-7 + AZD7762; first compound 0.253 µM,0.437
same,relative viability,ALW-II-49-7 + AZD7762; first compound 0.8 µM,0.427
same,relative viability,ALW-II-49-7 + AZD7762; first compound 8 µM,0.332
NCI-H23,relative viability,XMD13-2 + Lapatinib; first compound 0.05 µM,1.33
same,relative viability,XMD13-2 + Lapatinib; first compound 0.1581 µM,0.964
same,relative viability,XMD13-2 + Lapatinib; first compound 0.5 µM,0.996
same,relative viability,XMD13-2 + Lapatinib; first compound 1.581 µM,1.09
same,relative viability,XMD13-2 + Lapatinib; first compound 5 µM,1.27
same,relative viability,XMD13-2 + Phenformin; first compound 0.05 µM,1
same,relative viability,XMD13-2 + Phenformin; first compound 0.1581 µM,0.796
same,relative viability,XMD13-2 + Phenformin; first compound 0.5 µM,0.802
same,relative viability,XMD13-2 + Phenformin; first compound 1.581 µM,0.725
same,relative viability,XMD13-2 + Phenformin; first compound 5 µM,0.916
same,relative viability,[1]; first compound 0.08 µM,0.495
same,relative viability,[1]; first compound 0.253 µM,0.496
same,relative viability,[1]; first compound 0.8 µM,0.573
same,relative viability,[1]; first compound 2.53 µM,0.54
same,relative viability,[1]; first compound 8 µM,0.543
same,relative viability,ALW-II-49-7 + AZD7762; first compound 0.08 µM,0.163
same,relative viability,ALW-II-49-7 + AZD7762; first compound 0.253 µM,0.263
same,relative viability,ALW-II-49-7 + AZD7762; first compound 0.8 µM,0.147
same,relative viability,ALW-II-49-7 + AZD7762; first compound 2.53 µM,0.227
same,relative viability,ALW-II-49-7 + AZD7762; first compound 8 µM,0.224
NCI-H647,relative viability,XMD13-2 + Lapatinib; first compound 0.05 µM,1.14
same,relative viability,XMD13-2 + Lapatinib; first compound 0.1581 µM,1.31
same,relative viability,XMD13-2 + Lapatinib; first compound 0.5 µM,1.22
same,relative viability,XMD13-2 + Lapatinib; first compound 1.581 µM,1.02
same,relative viability,XMD13-2 + Lapatinib; first compound 5 µM,0.369
same,relative viability,XMD13-2 + Phenformin; first compound 0.05 µM,0.697
same,relative viability,XMD13-2 + Phenformin; first compound 0.1581 µM,0.605
same,relative viability,XMD13-2 + Phenformin; first compound 0.5 µM,0.678
same,relative viability,XMD13-2 + Phenformin; first compound 1.581 µM,0.659
same,relative viability,XMD13-2 + Phenformin; first compound 5 µM,0.435
same,relative viability,[1]; first compound 0.08 µM,0.422
same,relative viability,[1]; first compound 0.253 µM,0.307
same,relative viability,[1]; first compound 0.8 µM,0.444
same,relative viability,[1]; first compound 2.53 µM,0.294
same,relative viability,[1]; first compound 8 µM,0.238
same,relative viability,ALW-II-49-7 + AZD7762; first compound 0.08 µM,0.348
same,relative viability,ALW-II-49-7 + AZD7762; first compound 0.253 µM,0.402
same,relative viability,ALW-II-49-7 + AZD7762; first compound 0.8 µM,0.419
same,relative viability,ALW-II-49-7 + AZD7762; first compound 8 µM,0.29
201T,relative viability,XMD13-2 + Lapatinib; first compound 0.05 µM,1.06
same,relative viability,XMD13-2 + Lapatinib; first compound 0.1581 µM,1.13
same,relative viability,XMD13-2 + Lapatinib; first compound 0.5 µM,1.02
same,relative viability,XMD13-2 + Lapatinib; first compound 1.581 µM,1.07
same,relative viability,XMD13-2 + Lapatinib; first compound 5 µM,1.08
same,relative viability,XMD13-2 + Phenformin; first compound 0.05 µM,0.462
same,relative viability,XMD13-2 + Phenformin; first compound 0.1581 µM,0.45
same,relative viability,XMD13-2 + Phenformin; first compound 0.5 µM,0.397
same,relative viability,XMD13-2 + Phenformin; first compound 1.581 µM,0.467
same,relative viability,XMD13-2 + Phenformin; first compound 5 µM,0.464
same,relative viability,[1]; first compound 0.08 µM,0.362
same,relative viability,[1]; first compound 0.253 µM,0.361
same,relative viability,[1]; first compound 0.8 µM,0.376
same,relative viability,[1]; first compound 2.53 µM,0.329
same,relative viability,[1]; first compound 8 µM,0.347
same,relative viability,ALW-II-49-7 + AZD7762; first compound 0.08 µM,0.661
same,relative viability,ALW-II-49-7 + AZD7762; first compound 0.253 µM,0.604
same,relative viability,ALW-II-49-7 + AZD7762; first compound 0.8 µM,0.745
same,relative viability,ALW-II-49-7 + AZD7762; first compound 2.53 µM,0.574
same,relative viability,ALW-II-49-7 + AZD7762; first compound 8 µM,0.552
NCI-H1734,relative viability,XMD13-2 + Lapatinib; first compound 0.05 µM,1.28
same,relative viability,XMD13-2 + Lapatinib; first compound 0.1581 µM,0.995
same,relative viability,XMD13-2 + Lapatinib; first compound 0.5 µM,0.735
same,relative viability,XMD13-2 + Lapatinib; first compound 1.581 µM,0.935
same,relative viability,XMD13-2 + Lapatinib; first compound 5 µM,0.85
same,relative viability,XMD13-2 + Phenformin; first compound 0.05 µM,0.463
same,relative viability,XMD13-2 + Phenformin; first compound 0.1581 µM,0.354
same,relative viability,XMD13-2 + Phenformin; first compound 0.5 µM,0.391
same,relative viability,XMD13-2 + Phenformin; first compound 1.581 µM,0.386
same,relative viability,XMD13-2 + Phenformin; first compound 5 µM,0.363
same,relative viability,[1]; first compound 0.08 µM,0.293
same,relative viability,[1]; first compound 0.253 µM,0.376
same,relative viability,[1]; first compound 0.8 µM,0.355
same,relative viability,[1]; first compound 2.53 µM,0.319
same,relative viability,[1]; first compound 8 µM,0.296
same,relative viability,ALW-II-49-7 + AZD7762; first compound 0.08 µM,0.588
same,relative viability,ALW-II-49-7 + AZD7762; first compound 0.253 µM,0.562
same,relative viability,ALW-II-49-7 + AZD7762; first compound 0.8 µM,0.544
same,relative viability,ALW-II-49-7 + AZD7762; first compound 2.53 µM,0.483
same,relative viability,ALW-II-49-7 + AZD7762; first compound 8 µM,0.55
